Marks after values point to notes of the source that are not given here.
How the values were obtained:
[1] = test system: cardiazol-induced convulsions; assay: Anticonvulsivant test, cardiazol-induced convulsions; type: in vivo, male albino swiss (Charles River) mice
Protocol: (§1) Anticonvulsivant tests were carried out using cardiazol, strychnine and bicuculline at doses of 100 mg/10 ml/kg i.p., 0.73 mg/10 ml/kg s.c. and 2.38 mg/10 ml/kg s.c., respectively, chosen in such a way as to provoke death in 50% of the control animals.
(§2) The tests were carried out in male albino swiss (Charles River) mice weighing 22-24 g. The compound under examination, dissolved in water, was i.p. administered 30 minutes before the convulsivant agent administration.
(§3) As reference substance, 3-APS (200-400-800 mg/10 ml/kg i.p.) was used.

[2] = test system: strychnine-induced convulsions; assay: Anticonvulsivant test, strychnine-induced convulsions; type: in vivo, male albino swiss (Charles River) mice
Protocol: as §1, §2, §3

[3] = test system: bicuculline-induced convulsions; assay: Anticonvulsivant test, bicuculline-induced convulsions; type: in vivo, male albino swiss (Charles River) mice
Protocol: as §1, §2, §3

[4] = Stability of the solid product versus pH (deacylation); type: physicochemical; conditions: above it deacylation of the compound takes place
From the text: After it had been cooled to room temperature the mixtured was filtered and the filtrate added dropwise to an Erlenmeyer flask containing about 700 milliliters of ethyl ether. A white precipitate formed which was again dissolved in methanol, filtered and re-precipitated with ether. Upon drying 7.3 g of a white, hygroscopic solid product, stable at pH <6.3 were obtained; above this […] deacylation of the compound takes place. • Elementary analysis: [formula] • NMR corresponding

[5] = test system: male and female Sprague Dawley rats; assay: Toxicity test, oral administration for 15 consecutive days; type: in vivo; conditions: 150-450-1350 mg/10 ml/kg for 15 consecutive days
Protocol: The toxicity tests were carried out on male and female Sprague Dawley rats which were orally administered ST549 at the doses of 150-450-1350 mg/10 ml/kg for 15 consecutive days; the control animals were administered the same volume of vehicle as the test animals.

[6] = test system: male albino swiss mice; assay: Tolerability test, intravenous; type: in vivo; conditions: 1.4 g/kg intravenously, in sterile saline at neutral pH
Protocol: The tolerability test was carried out on male albino swiss mice weighing 22-24 g.

[7] = test system: FeCl3-induced epilepsy; assay: Antiepileptic activity test (FeCl3-induced epilepsy model); type: in vivo, Male albino Wistar rats; conditions: 500, 250 and 125 mg/kg i.v. ninety minutes following FeCl3 injection; Mann-Whitney's "U" test, P<0.05
Protocol: Male albino Wistar rats weighing 250-300 g were used. The animals, anaesthetized with Nembutal Na (30 mg/kg e.p.), were stereotactically injected in their left ventral hippocampus one microliter of 0.55 M FeC13 solution (AP =-3.2; L=5.0; H=5.5 Pellegrino and Cushman, 1971). Ten minutes following injection, recording electrodes were implanted: in both ventral hippocampi, two millimeters below the FeC13 injection site (bipolars), bilaterally on the frontoparietal cortex (monopolars). […] The epilepsy degree was assessed by calculating for each animal the number and duration in seconds of the seizures at 5-minute intervals during the whole recording span both in the hippocampus where the injection had been performed and in the contralateral cortex. Moreover, an "index of epileptization" was calculated as the mean product of seizure number times the duration of the seizures in each time interval. […]
The results thus obtained show the antiepileptic activity of the compound assessed by examining the whole phenomenon as it evolves in time via the measure (carried out with the trapezoidal rule) of the area under the curve wherein the average number of seizures and their duration is plotted versus time.

[8] = test system: auricular electroshock; assay: Auricular electroshock (maximal electroshock); type: in vivo, Male albino Swiss mice; conditions: 14 animals, control 6/14
Protocol: Male albino Swiss mice weighing 22-24 g were used in this test. The electroshock conditions were the following: • shock duration: 3 seconds; frequence: 100; pulse amplitude: 0.6 milliseconds, current intensity: 40 milliamperes. • 400 and 800 mg/10 ml/kg of the compound under examination were administered via the intraperitoneal route 30 minutes before the electroshock.
The tests results which illustrate the number of animals preserved from death provoked by maximal electroshock are shown in the following Table 3.

[9] = Cardiazol, 3-APS 400 mg/kg i.p.
[10] = Cardiazol, 3-APS 800 mg/kg i.p.
[11] = doses of 200,400 and 800 mg/10 ml/kg i.p.
[12] = Strychnine, 3-APS 400 mg/kg i.p.
[13] = Strychnine, 3-APS 800 mg/kg i.p.
[14] = Bicuculline, 3-APS 800 mg/kg i.p.
[15] = Cardiazol, ST 549 i.p., equimolar to 400 mg/kg 3APS
[16] = lower dose (equimolar to 200 mg/10 ml/kg of 3-APS)
[17] = Strychnine, ST 549 i.p., equimolar to 400 mg/kg 3APS
[18] = Bicuculline, ST 549 i.p., equimolar to 400 mg/kg 3APS

For `NCCCS(=O)(=O)O` [3-APS, 3-aminopropanesulfonic acid], the “% Conv.” value ([1]; Cardiazol 100 mg/10 ml/kg i.p., 3-APS 200 mg/kg i.p. 30 min before, 10 animals) was 100%, the “% Death rate” value ([1]; Cardiazol, 3-APS 200 mg/kg i.p.) was 50% and the “% Conv.” value [1, 9] was 100%. The “% Death rate” value [1, 9] was 90%, the “% Conv.” value [1, 10] was 100% and the “% Death rate” value [1, 10] was 60%. For the same compound, the “preservation from cardiazole-induced death” value [1, 11] was “did not preserve animals”, the “% Conv.” value ([2]; Strychnine 0.73 mg/10 ml/kg s.c., 3-APS 200 mg/kg i.p. 30 min before, 10 animals) was 100% and the “% Death rate” value ([2]; Strychnine, 3-APS 200 mg/kg i.p.) was 90%. For the same compound, the “% Conv.” value [2, 12] was 100%, the “% Death rate” value [2, 12] was 100% and the “% Conv.” value [2, 13] was 100%. For the same compound, the “% Death rate” value [2, 13] was 90%, the “preservation from strychnine-induced death” value [2, 11] was “did not preserve animals” and the “latency time of bicuculline-induced death” value ([3]; 400 mg/10 ml/kg i.p.) was “significantly increased”. For the same compound, the “latency time of the bicuculline-induced first convulsion” value ([3]; 800 mg/kg i.p.) was “significantly increased”, the “% Conv.” value ([3]; Bicuculline 2.38 mg/10 ml/kg s.c., 3-APS 200 mg/kg i.p. 30 min before, 10 animals) was 100% and the “% Death rate” value ([3]; Bicuculline, 3-APS 200 mg/kg i.p.) was 100%. For the same compound, the “% Death rate” value ([3]; Bicuculline, 3-APS 400 mg/kg i.p.) was 75%, the “% Conv.” value ([3]; Bicuculline, 3-APS 400 mg/kg i.p., 8 animals per group) was 100* % and the “% Conv.” value [3, 14] was 70%. For the same compound, the “% Death rate” value [3, 14] was 40% and the “preservation from bicuculline-induced death” value [3, 11] was “did not preserve animals”.
In the case of `CCCC(=O)OC(CN)CS(=O)(=O)O.Cl` (stereo not shown) [ST 477, 3-amino-2-butanoyloxypropanesulfonic acid hydrochloride], the “stable at pH” value [4] is reported as under 6.3.
For `CC(=O)OC(CN)CS(=O)(=O)O` (stereo not shown) [ST 549, 3-amino-2-acetyloxy propanesulfonic acid], the “% Conv.” value ([1]; Cardiazol, ST 549 i.p., dose equimolar to 200 mg/kg 3APS, 10 animals) was 100%, the “% Death rate” value ([1]; Cardiazol, ST 549 i.p., equimolar to 200 mg/kg 3APS) was 50% and the “% Conv.” value [1, 15] was 90%. For the same compound, the “% Death rate” value [1, 15] was 0%, the “animals preserved from cardiazol-induced death” value ([1]; dose equimolar to 400 mg/10 ml/kg i.p. of 3-APS) was 100% and the “effect on the relevant parameters (cardiazol)” value [1, 16] was “did not affect the relevant parameters”. The “% Death rate” value ([2]; Strychnine, ST 549 i.p., equimolar to 200 mg/kg 3APS) was 90%, the “% Conv.” value ([2]; Strychnine, ST 549 i.p., equimolar to 200 mg/kg 3APS, 10 animals) was 100% and the “% Conv.” value [2, 17] was 100%. For the same compound, the “% Death rate” value [2, 17] was 90%, the “latency time of strychnine-induced death” value [2, 16] was “significantly increased” and the “latency time of strychnine-induced first convulsion” value [2, 16] was “significantly increased”. For the same compound, the “% Death rate” value ([3]; Bicuculline, ST 549 i.p., equimolar to 200 mg/kg 3APS) was 60%, the “% Conv.” value ([3]; Bicuculline, ST 549 i.p., equimolar to 200 mg/kg 3APS, 10 animals) was 70% and the “% Conv.” value [3, 18] was 60%. For the same compound, the “% Death rate” value [3, 18] was 60%, the “decrease of bicuculline-induced death rate” value ([3]; doses equimolar to 400 and 200 mg/10 ml/kg i.p. of 3-APS) was 30% and the “animals preserved from convulsions (bicuculline)” value ([3]; doses equimolar to 400 and 200 mg/10 ml/kg i.p. of 3-APS, printed as "the same percentage") was 30%. The “general health or behaviour of the animals” value [5] was “did not affect”, the “Autopsy, main organs” value ([5]; at the end of the test) was “did not reveal either alterations or lesions to the main organs” and the “blood and urine parameters” value ([5]; with respect to the controls) was “unchanged”. For the same compound, the tolerability [6] was “well tolerated”, the “area under the curve of average number of seizures and their duration versus time, compared with controls” value [7] was “statistically significant difference” and the death rate ([8]; 400 mg/kg i.p. 30 minutes before the electroshock) was 3/14. For the same compound, the death rate ([8]; 800 mg/kg i.p. 30 minutes before the electroshock) was 3/14.

Source: patent publication EP0309421A2, “O-alkanoyl derivatives of 3-amino-2-hydroxypropanesulfonic acid having anticonvulsivant activity and pharmaceutical compositions containing same for the therapeutical treatment of epilepsy” (SIGMA TAU Industrie Farmaceutiche Riunite S.p.A., priority 1987, dated 1989)
